Laboratory results from patent publication US9833497B2, “Human originated EGF domain proteins and use of the same” (CHENGDU SOURCEBIO LIMITED-LIABILITY COMPANY, priority 2013, dated 2017).

Tests used:
Format in all cases: cell-based
Aeromonas hydrophila = test: MIC against Gram-negative bacteria: Aeromonas hydrophila
Procedure, shortened: (§1)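 Read-out is absence of bacterial growth, with MIC set at the lowest recombinant protein concentration achieving it. Bacteria, pre-grown in LB to McFarland 0.5 and resuspended, were exposed at 5×10^5 CFU/mL to two-fold diluted human EGF domain proteins in triplicate at 37° C, 175 rpm.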

Citrobacter diversus = test: MIC against Gram-negative bacteria: Citrobacter diversus
Procedure, shortened: as §1

Klebsiella pneumonia = test: MIC against Gram-negative bacteria: Klebsiella pneumonia
Procedure, shortened: as §1

Serratia marcescens = test: MIC against Gram-negative bacteria: Serratia marcescens
Procedure, shortened: as §1

Pseudomonas aeruginosa = test: MIC against Gram-negative bacteria: Pseudomonas aeruginosa
Procedure, shortened: as §1

Enterobacter cloacae = test: MIC against Gram-negative bacteria: Enterobacter cloacae
Procedure, shortened: as §1

Proteus mirabilis = test: MIC against Gram-negative bacteria: Proteus mirabilis
Procedure, shortened: as §1

E. coli BL21 = test: MIC against Gram-negative bacteria: E. coli BL21
Procedure, shortened: as §1

Proteus vulgaris = test: MIC against Gram-negative bacteria: Proteus vulgaris
Procedure, shortened: as §1

E. coli DH5α = test: Antibacterial activity: MIC and growth curve against E. coli DH5α in 96-well plate; conditions: minimal inhibitory concentration against E. coli DH5α; 96-well plate, 5×10^5 CFU/mL, 37° C., judged after 8 h
Procedure, shortened: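 Log-phase bacteria (OD600 ~0.5) resuspended in LB at 5×10^5 CFU/mL, exposed to recombinant protein at 50, 25, 12.5 μg/mL final in triplicate, 37 °C shaking at 175 rpm. OD600 read every 30 min; MIC is lowest concentration showing no growth.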

Moraxella catarrhalis = test: MIC against Gram-negative bacteria: Moraxella catarrhalis
Procedure, shortened: as §1

[1] = 96-well plate, 5×10^5 CFU/mL, 37° C., 10 h
[2] = 10 h cultivation at 37° C., 5×10^5 CFU/mL, two-fold serial dilution

PRT709 (SCQLCDGYCYNGGTCQLDPETNVPVCLCSTNWSGTQCE; listed as Homo sapiens)
MIC A. hydrophila (Aeromonas hydrophila; [1]): 50 mg/L
MIC C. diversus (Citrobacter diversus; [1]): 12.5 mg/L
MIC K. pneumonia (Klebsiella pneumonia; [1]): 25 mg/L
MIC S. marcescens (Serratia marcescens; [1]): 50 mg/L
MIC P. aeruginosa (Pseudomonas aeruginosa; [1]): 50 mg/L
MIC E. cloacae (Enterobacter cloacae; [1]): 12.5 mg/L
MIC P. mirabilis (Proteus mirabilis; [1]): 25 mg/L
MIC E. coli BL21 (E. coli BL21; [1]): 12.5 mg/L
MIC P. vulgaris (Proteus vulgaris; [1]): 12.5 mg/L
MIC (E. coli DH5α): 50 mg/L
MIC M. catarrhalis (Moraxella catarrhalis; [1]): 50 mg/L

PRT554 (CNCESDFTDGTCEDLTGRCYCRPNFSGERCDVCAEGFTGFPSCYPT; listed as Homo sapiens)
MIC against A. hydrophila (Aeromonas hydrophila; [1]): 12.5 mg/L
MIC against C. diversus (Citrobacter diversus; [1]): 25 mg/L
MIC against K. pneumonia (Klebsiella pneumonia; [1]): 50 mg/L
MIC against S. marcescens (Serratia marcescens; [1]): 25 mg/L
MIC against P. aeruginosa (Pseudomonas aeruginosa; [1]): 12.5 mg/L
MIC against E. cloacae (Enterobacter cloacae; [1]): 25 mg/L
MIC against P. mirabilis (Proteus mirabilis; [1]): 25 mg/L
MIC against E. coli BL21 (E. coli BL21; [1]): 50 mg/L
MIC against P. vulgaris (Proteus vulgaris; [1]): 12.5 mg/L
MIC (E. coli DH5α): 12.5 mg/L
MIC against M. catarrhalis (Moraxella catarrhalis; [1]): 50 mg/L

PRT1123 (QLTGCQGHTCPLAATCIPIFESGVHSYVCHCPPGTHGPFCG; listed as Homo sapiens)
MIC A. hydrophila (Aeromonas hydrophila; [2]): 50 mg/L
MIC C. diversus (Citrobacter diversus; [2]): 12.5 mg/L
MIC K. pneumonia (Klebsiella pneumonia; [2]): 12.5 mg/L
MIC S. marcescens (Serratia marcescens; [2]): 12.5 mg/L
MIC P. aeruginosa (Pseudomonas aeruginosa; [2]): 25 mg/L
MIC E. cloacae (Enterobacter cloacae; [2]): 25 mg/L
MIC P. mirabilis (Proteus mirabilis; [2]): 50 mg/L
MIC E. coli BL21 (E. coli BL21; [2]): 50 mg/L
MIC P. vulgaris (Proteus vulgaris; [2]): 25 mg/L
MIC (E. coli DH5α): 25 mg/L
MIC M. catarrhalis (Moraxella catarrhalis; [2]): 25 mg/L

PRT1094 (GDNSCKSNPCHNGGVCHSRWDDFSCSCPALTSGKACE; listed as Homo sapiens)
MIC A. hydrophila (Aeromonas hydrophila; [2]): 50 mg/L
MIC C. diversus (Citrobacter diversus; [2]): 12.5 mg/L
MIC K. pneumonia (Klebsiella pneumonia; [2]): 12.5 mg/L
MIC S. marcescens (Serratia marcescens; [2]): 12.5 mg/L
MIC P. aeruginosa (Pseudomonas aeruginosa; [2]): 25 mg/L
MIC E. cloacae (Enterobacter cloacae; [2]): 25 mg/L
MIC P. mirabilis (Proteus mirabilis; [2]): 12.5 mg/L
MIC E. coli BL21 (E. coli BL21; [2]): 50 mg/L
MIC P. vulgaris (Proteus vulgaris; [2]): 50 mg/L
MIC (E. coli DH5α): 25 mg/L
MIC M. catarrhalis (Moraxella catarrhalis; [2]): 50 mg/L

PRT988 (DVDECQLQPNACHNGGTCFNTLGGHSCVCVNGWTGESCS; listed as Homo sapiens)
MIC (Aeromonas hydrophila; A. hydrophila, 10 h cultivation at 37° C.): 50 mg/L
MIC (Citrobacter diversus; C. diversus, 10 h cultivation at 37° C.): 12.5 mg/L
MIC (Klebsiella pneumonia; K. pneumonia, 10 h cultivation at 37° C.): 50 mg/L
MIC (Serratia marcescens; S. marcescens, 10 h cultivation at 37° C.): 12.5 mg/L
MIC (Pseudomonas aeruginosa; P. aeruginosa, 10 h cultivation at 37° C.): 12.5 mg/L
MIC (Enterobacter cloacae; E. cloacae, 10 h cultivation at 37° C.): 12.5 mg/L
MIC (Proteus mirabilis; P. mirabilis, 10 h cultivation at 37° C.): 12.5 mg/L
MIC (E. coli BL21; E. coli BL21, 10 h cultivation at 37° C.): 50 mg/L
MIC (Proteus vulgaris; P. vulgaris, 10 h cultivation at 37° C.): 50 mg/L
MIC (E. coli DH5α): 12.5 mg/L
MIC (Moraxella catarrhalis; M. catarrhalis, 10 h cultivation at 37° C.): 50 mg/L
